Columns and labels:
[1] = system: STAM Model of Advanced Non-Alcoholic Steatohepatitis; assay: HE staining and NAFLD Activity Score (NAS) in STAM mice; format: in vivo, C57BL/6 mice; set-up: key to NAS (NAFLD Activity Score): NAS scored per Kleiner criteria (Hepatology 2005); details: for NAS (NAFLD Activity Score): mean ± SD; for Number of mice with Steatosis score 0: score 0 = <5%; for Number of mice with Lobular inflammation score 0: score 0 = No foci; for Number of mice with Steatosis score 1: score 1 = 5-33%; for Number of mice with Lobular inflammation score 1: score 1 = <2 foci/200x; for Number of mice with Hepatocyte ballooning score 1: score 1 = Few balloon cells; for Number of mice with Lobular inflammation score 2: score 2 = 2-4 foci/200x; for Number of mice with Steatosis score 2: score 2 = >33-66%; for Number of mice with Hepatocyte ballooning score 2: score 2 = Many cells/prominent ballooning
Protocol: STAM™ is a useful model for advanced non-alcoholic steatohepatitis (advanced NASH), symptoms thereof, and related liver disorders, created by the combination of chemical and dietary interventions in C57BL/6 mice. In this example, after inducing NASH, it was allowed to reach an advanced stage, and the mice were treated at 8-12 weeks. […] Vehicle, MN-001, and Telmisartan were administered by oral route in a volume of 10 mL/kg. […] For HE staining, sections were cut from paraffin blocks of liver tissue prefixed in Bouin's solution and stained with Lillie-Mayer's Hematoxylin (Muto Pure Chemicals, Japan) and eosin solution (Wako Pure Chemical Industries). NAFLD Activity score (NAS) was calculated according to the criteria of Kleiner (Kleiner D E. et al., Hepatology, 2005; 41:1313). To visualize collagen deposition, Bouin's fixed liver sections were stained using picro-Sirius red solution (Waldeck, Germany). […] P values<0.05 were considered statistically significant. […] Results were expressed as mean±SD. Ten NASH mice were orally administered vehicle supplemented with MN-001 at a dose of 10 mg/kg once daily from 8 to 12 weeks of age. Ten NASH mice were orally administered vehicle supplemented with MN-001 at a dose of 30 mg/kg once daily from 8 to 12 weeks of age. Ten NASH mice were orally administered vehicle supplemented with MN-001 at a dose of 100 mg/kg once daily from 8 to 12 weeks of age. Ten NASH mice were orally administered pure water supplemented with Telmisartan at a dose of 10 mg/kg once daily from 8 to 12 weeks of age.

[2] = Telmisartan 10 mg/kg oral once daily, 8 to 12 weeks of age
Protocol: NASH was induced in 50 male mice by a single subcutaneous injection of 200 μg streptozotocin (STZ, Sigma-Aldrich, USA) solution 2 days after birth and feeding with high fat diet (HFD, 57 kcal % fat, cat#: HFD32, CLEA Japan, Japan) after 4 weeks of age.
MN-001 was administered at doses of 10, 30, and 100 mg/kg once daily. Telmisartan was administered at a dose of 10 mg/kg once daily.
Statistical analyses were performed using Bonferroni Multiple Comparison Test on GraphPad Prism 4 (GraphPad Software, USA). P values<0.05 were considered statistically significant. A trend or tendency was assumed when a one-tailed t-test returned P values<0.10. Results were expressed as mean±SD.
The viability, clinical signs and behavior were monitored daily. Body weight was recorded before the treatment. […] The animals were sacrificed by exsanguination through direct cardiac puncture under ether anesthesia (Wako Pure Chemical Industries).

LTC4 synthase mRNA = assay: Liver gene expression by quantitative RT-PCR: LTC4 synthase; format: in vivo, C57BL/6 mice; details: Telmisartan 10 mg/kg oral once daily, 8 to 12 weeks of age
Protocol: (§1) Total RNA was extracted from liver samples using RNAiso (Takara Bio, Japan) according to the manufacturer's instructions. One μg of RNA was reverse-transcribed using a reaction mixture containing 4.4 mM MgCl2 (F. Hoffmann-La Roche, Switzerland), 40 U RNase inhibitor (Toyobo, Japan), 0.5 mM dNTP (Promega, USA), 6.28 μM random hexamer (Promega), 5× first strand buffer (Promega), 10 mM dithiothreitol (Invitrogen, USA) and 200 U MMLV-RT (Invitrogen) in a final volume of 20 μL. The reaction was carried out for 1 hour at 37° C., followed by 5 minutes at 99° C. Real-time PCR was performed using real-time PCR DICE and SYBR premix Taq (Takara Bio). To calculate the relative mRNA expression level, the expression of each gene was normalized to that of reference gene 36B4 (gene symbol: Rp1p0). Information of PCR-primer sets are described in Table 1. [table] […] P values<0.05 were considered statistically significant. […] Results were expressed as mean±SD.

FLAP mRNA = assay: Liver gene expression by quantitative RT-PCR: FLAP; format: in vivo, C57BL/6 mice; details: 100 mg/kg oral once daily, 8 to 12 weeks of age (MN-001-high)
Protocol: as §1

[3] = 10 mg/kg oral once daily, 8 to 12 weeks of age (MN-001-low n=10; Telmisartan n=9)
[4] = all doses of MN-001 (10, 30, 100 mg/kg oral once daily, 8 to 12 weeks of age)
[5] = high dose, 100 mg/kg oral once daily, 8 to 12 weeks of age
[6] = 30 mg/kg oral once daily, 8 to 12 weeks of age (MN-001-middle, n=10)
[7] = 100 mg/kg oral once daily, 8 to 12 weeks of age (MN-001-high, n=10)
[8] = middle dose, 30 mg/kg oral once daily, 8 to 12 weeks of age

## CCCc1nc2c(C)cc(-c3nc4ccccc4n3C)cc2n1Cc1ccc(-c2ccccc2C(=O)O)cc1 [Telmisartan, reference compound]
[1]; Telmisartan 10 mg/kg oral once daily, 8 to 12 weeks of age
  NAS compared with the Vehicle group: significantly decreased
[1]; [3]
  NAS (NAFLD Activity Score): 2.8 ± 0.8
  Number of mice with Steatosis score 0: 2
  Number of mice with Lobular inflammation score 0: 2
  Number of mice with Steatosis score 1: 7
  Number of mice with Lobular inflammation score 1: 5
  Number of mice with Hepatocyte ballooning score 1: 9
  Number of mice with Lobular inflammation score 2: 2
[2]
  Mortality (animals found dead): One of the Telmisartan group was found dead on day 24
LTC4 synthase mRNA
  LTC4 synthase mRNA expression levels compared with the Vehicle group: tended to decrease

## CCCc1c(SCCCOc2ccc(C(C)=O)c(OCCCC(=O)O)c2CCC)ccc(C(C)=O)c1O [MN-001]
[1]; [4]
  Hepatocellular ballooning and inflammatory cell infiltration in HE-stained liver sections: marked improvements
  NAS compared with the Vehicle group: significantly decreased
[1]; [5]
  Ballooning score: significantly reduced
  NAS compared with the Vehicle group: significantly decreased
[1]; [3]
  NAS (NAFLD Activity Score): 3.6 ± 1.4
  Number of mice with Steatosis score 0: 3
  Number of mice with Lobular inflammation score 0: 2
  Number of mice with Steatosis score 1: 6
  Number of mice with Lobular inflammation score 1: 2
  Number of mice with Hepatocyte ballooning score 1: 6
  Number of mice with Lobular inflammation score 2: 6
  Number of mice with Steatosis score 2: 1
  Number of mice with Hepatocyte ballooning score 2: 4
[1]; [6]
  NAS (NAFLD Activity Score): 4.0 ± 0.9
  Number of mice with Lobular inflammation score 0: 1
  Number of mice with Steatosis score 1: 7
  Number of mice with Lobular inflammation score 1: 6
  Number of mice with Hepatocyte ballooning score 1: 5
  Number of mice with Lobular inflammation score 2: 3
  Number of mice with Steatosis score 2: 3
  Number of mice with Hepatocyte ballooning score 2: 5
[1]; [7]
  NAS (NAFLD Activity Score): 3.1 ± 0.7
  Number of mice with Lobular inflammation score 0: 4
  Number of mice with Steatosis score 1: 9
  Number of mice with Lobular inflammation score 1: 5
  Number of mice with Hepatocyte ballooning score 1: 7
  Number of mice with Lobular inflammation score 2: 1
  Number of mice with Steatosis score 2: 1
  Number of mice with Hepatocyte ballooning score 2: 3
[1]; [8]
  Ballooning score: significantly reduced
  NAS compared with the Vehicle group: significantly decreased
FLAP mRNA
  FLAP mRNA expression levels compared with the Vehicle group: tended to increase

— patent publication US9346754B2, “Method of treating advanced non-alcoholic steatohepatitis” (priority 2014, dated 2016)
